Laboratory results from patent publication US20130196362A1, “DIARYLAMINE-BASED FLUOROGENIC PROBES FOR DETECTION OF PEROXYNITRITE” (THE UNIVERSITY OF HONG KONG, priority 2012, published 2013).
One block for each molecule: values may come before it.

Legend:
[1] = Fluorescence response of probe to increasing peroxynitrite in phosphate buffer
Procedure: (§1) FIG. 1A depicts fluorescence spectra showing fluorescence intensities of compound 2 after treatment with different amounts of peroxynitrite. […] The spectra were acquired by dissolving Compound 2 in 0.1 M phosphate buffer at pH 7.4 to form a 1 μM solution, with excitation and emission spectra at 510 nm and 530 nm, respectively. The concentration of highly reactive oxygen species hydroxyl radical (.OH), hypochlorous acid (^−OCl), and peroxynitrite (ONOO^−) is 1 μM. The concentration of ^1O2, O2.^−, NO, ROO. and H2O2 is 10 μM.
(§2) FIG. 2A depicts fluorescence spectra showing fluorescence intensities of Compound 11 after treatment with different amounts of peroxynitrite. […] The spectra were acquired by dissolving […] in 0.1M phosphate buffer at pH 7.4 to form a 2 μM solution, with excitation and emission at 547 nm and 570 nm, respectively. The concentration of highly reactive oxygen species hydroxyl radical (.OH), hypochlorous acid (^−OCl), and peroxynitrite (ONOO^−) is 2 μM. The concentration of ^1O2, O2.^−, NO, ROO. and H2O2 is 20 μM.
(§3) FIG. 3A depicts fluorescence spectra showing fluorescence intensities of Compound 22 after treatment with different amounts of peroxynitrite. […] The spectra were acquired by dissolving Compound 22 in 0.1M phosphate buffer at pH 7.4 to form a 5 μM solution, with excitation at 600 nm and emission at 617 nm, respectively. The concentration of highly reactive oxygen species hydroxyl radical (.OH), hypochlorous acid (^−OCl), and peroxynitrite (ONOO^−) is 5 μM. The concentration of ^1O2, O2.^−, NO, ROO. and H2O2 is 50 μM.
as §3, with “4A” for “3A”, “25” for “22”, “650” for “600”, “665” for “617”
(§4) FIG. 5A depicts fluorescence spectra showing fluorescence intensities of Compound 30 after treatment with different amounts of peroxynitrite. […] The spectra were acquired by dissolving Compound 30 in 0.1 M phosphate buffer at pH 7.4 and exciting at 515 nm. The concentration of highly reactive oxygen species hypochlorous acid (^−OCl) and peroxynitrite (ONOO^−) is 1 μM. The concentration of hydroxyl radical (.OH) is 1 μM or 10 μM. The concentration of ^1O2, O2.^−, NO, ROO. and H2O2 is 10 μM or 100 μM. (see figure for exact concentrations of certain ROS and RNS)
Specifically, Compound 2 is dissolved in 0.1 M phosphate buffer at pH 7.4 to form a 1 μM solution, with excitation and emission spectra at 510 nm and 530 nm, respectively. The 1 μM solution of Compound 2 is treated with peroxynitrite at various concentrations.
Specifically, Compound 11 is dissolved in 0.1 M phosphate buffer at pH 7.4 to form a 2 μM solution, with excitation and emission spectra at 547 nm and 570 nm, respectively. The 2 μM solution of Compound 11 is treated with peroxynitrite at various concentrations.
Specifically, Compound 22 is dissolved in 0.1 M phosphate buffer at pH 7.4 to form a 5 μM solution, with excitation and emission spectra at 600 nm and 617 nm, respectively. The 5 μM solution of Compound 22 is treated with peroxynitrite at various concentrations. […]

[2] = Reactivity of probe toward different ROS and RNS (selectivity) in phosphate buffer; conditions: for increase in fluorescence intensity with peroxynitrite versus other ROS and RNS: OCl-, pH 7.4
Procedure: as §1, §2, §3
as §3, with “4A” for “3A”, “25” for “22”, “650” for “600”, “665” for “617”
as §4
(§5) The reactivity of Compound 2 is compared toward different reactive oxygen species (ROS) and reactive nitrogen species (RNS). Specifically, the 1 μM solution of compound 2 is treated with various ROS and RNS. The concentration of highly reactive oxygen species (hydroxyl radical (.OH), hypochlorous acid (^−OCl), and peroxynitrite (ONOO^−)) is 1 μM. The concentration of ^1O2, O2.^−, NO, ROO. and H2O2 is 10 μM.
as §5, with “Compound 11” for “Compound 2”, “compared with” for “compared toward”, “the 2” for “the 1”, “compound 11” for “compound 2”, “is 2” for “is 1”, “is 20” for “is 10”
The reactivity of Compound 22 is compared with different reactive oxygen species (ROS) and reactive nitrogen species (RNS). Specifically, the 5 μM solution of compound 22 is treated with various ROS and RNS. The concentration of highly reactive oxygen species (hydroxyl radical (.OH), hypochlorous acid (^−OCl), and peroxynitrite (ONOO^−)) is 5 μM. The concentration of ^1O2, O2.^−, NO, ROO. and H2O2 is 50 μM. […]

[3] = tested on: SH-SY5Y neuroblastoma cells; test: Fluorescent microscopy of SH-SY5Y cells with or without SIN-1; assay type: cell-based, Human; conditions: incubated 1 hr; for fluorescence in the absence of stimulants: washed with PBS, no SIN-1; for fluorescence after treatment with stimulants: with SIN-1
Procedure: SH-SY5Y cells were co-stained with different compounds with or without SIN-1 for 1 h, and then washed quickly with PBS for 3 times and maintained in non-phenol red medium. Left: no SIN-1 treatment; Right: with SIN-1 treatment.
SH-SY5Y cells were co-stained with different compounds with or without SIN-1 for 1 h, and then washed quickly with PBS for 3 times and maintained in non-phenol red medium. Left: no SIN-1 treatment; Middle: with 1 mM SIN-1 treatment; Right: with 100 μM SIN-1 treatment.
SH-SY5Y cells were co-stained with different compounds with or without SIN-1 for 1 h, and then washed quickly with PBS for 3 times and maintained in non-phenol red medium. Left: no SIN-1 treatment; Middle: with 100 μM SIN-1 treatment; Right: with 200 μM SIN-1 treatment.
(§6) Human SH-SY5Y neuroblastoma cells (ATCC, USA) were maintained in high glucose Dulbecco's Modified Eagle Medium (DMEM, Hyclone) supplemented with 10% fetal bovine serum (FBS, Gibco), 1% penicillin/streptomycin (PS, Gibco) and 1% L-glutamine (Gibco). Mouse C17.2 neural progenitor cells (ATCC, USA) were maintained in high glucose Dulbecco's Modified Eagle Medium supplemented with 8% fetal bovine serum (Gibco), 4% horse serum (Gibco), 1% penicillin/streptomycin and 1% L-glutamine. Mouse RAW264.7 macrophage cells (ATCC, USA) were maintained in high glucose Dulbecco's Modified Eagle Medium (DMEM, Hyclone) supplemented with 10% fetal bovine serum (Gibco), 1% penicillin/streptomycin (Gibco) and 1% L-glutamine.
(§7) Generally, cells were grown to confluence prior to experiment. Cells were incubated with Compounds) 6, 7, 8, 14, 20, 21, 24, 27, and 32, respectively for 1 hr, and then washed three times with PBS buffer.

[4] = tested on: C17.2 neural progenitor cells; test: Fluorescent microscopy of C17.2 cells with or without SIN-1; assay type: cell-based, Mouse; conditions: for fluorescence in the absence of stimulants: no SIN-1; for fluorescence after treatment with stimulants: with SIN-1
Procedure: The cells were incubated with Compound 20 or 21 at a concentration of 1 μM, and then treated with (Lower) or without (Upper) SIN-1.
The cells were incubated with Compound 32 at a concentration of 5 μM.
as §6, §7

[5] = tested on: RAW264.7 macrophage cells; test: Fluorescent microscopy of RAW264.7 macrophages stimulated with LPS and IFN-γ; assay type: cell-based, Mouse; conditions: 500 nM
Procedure: The macrophage cells were incubated with Compound 27 at a concentration of 500 nM. Upper: Control; Lower: The macrophages were stimulated with LPS and IFN-γ for 14 hr. Left: Nuclear staining with Hoechst; Middle: Compound 27; Right: Merged.
as §6, §7

Structure (SMILES): CN(c1ccc(O)cc1)c1ccc2c(-c3ccc(C(=O)N(CC(=O)O)CC(=O)O)cc3C(=O)O)c3ccc(=O)cc-3oc2c1 [Compound 2]
- fluorescence intensity after treatment with peroxynitrite at various concentrations ([1]; 1 μM solution in 0.1 M phosphate buffer pH 7.4, excitation 510 nm, emission 530 nm): increases with increasing concentration of peroxynitrite
- increase in fluorescence intensity with peroxynitrite versus other ROS and RNS ([2]; 1 μM probe, .OH, ONOO- 1 μM, 1O2, O2.-, NO, ROO., H2O2 10 μM): much higher increase in fluorescence intensity

Structure (SMILES): COC(=O)CN(CC(=O)OC)C(=O)c1ccc2c(c1)C(=O)OC21c2ccc(OC(C)=O)cc2Oc2cc(N(C)c3ccc(O)cc3)ccc21 (centres unmarked) [Compound 7]
- fluorescence in the absence of stimulants [3]: very weak fluorescence
- fluorescence after treatment with stimulants [3]: strongly induced

Structure (SMILES): COC(=O)CCN(CCC(=O)OC)C(=O)c1ccc2c(c1)C(=O)OC21c2ccc(OC(C)=O)cc2Oc2cc(N(C)c3ccc(O)cc3)ccc21 (centres unmarked) [Compound 8]
- fluorescence in the absence of stimulants [3]: very weak fluorescence
- fluorescence after treatment with stimulants [3]: strongly induced

Structure (SMILES): CC1CC(C)(C)[N+](CCCC(=O)O)=c2cc3c(cc21)=C(c1ccccc1C(=O)O)c1cc(Cl)c(N(C)c2ccc(O)cc2)cc1O3 (centres unmarked) [Compound 11]
- fluorescence intensity after treatment with peroxynitrite at various concentrations ([1]; 2 μM solution in 0.1 M phosphate buffer pH 7.4, excitation 547 nm, emission 570 nm): increases with increasing concentration of peroxynitrite
- increase in fluorescence intensity with peroxynitrite versus other ROS and RNS ([2]; 2 μM probe, .OH, ONOO- 2 μM, 1O2, O2.-, NO, ROO., H2O2 20 μM): much higher increase in fluorescence intensity

Structure (SMILES): CC[N+]1=c2cc3c(cc2C(C)CC1(C)C)=C(c1ccc(CCl)cc1C)c1ccc(N(C)c2ccc(O)cc2)cc1O3 (centres unmarked) [Compound 20]
- fluorescence in the absence of stimulants [4]: very weak fluorescence
- fluorescence after treatment with stimulants [4]: strongly induced

Structure (SMILES): CC[N+]1=c2cc3c(cc2C(C)CC1(C)C)=C(c1ccc(C)cc1C)c1ccc(N(C)c2ccc(O)cc2)cc1O3 (centres unmarked) [Compound 21]
- fluorescence in the absence of stimulants [4]: very weak fluorescence
- fluorescence after treatment with stimulants [4]: strongly induced

Structure (SMILES): Cc1cc(C(=O)O)ccc1C1=C2C=CC(=O)C=C2[Si](C)(C)c2cc(N(C)c3ccc(O)cc3)ccc21 [Compound 22]
- fluorescence intensity after treatment with peroxynitrite at various concentrations ([1]; 5 μM solution in 0.1 M phosphate buffer pH 7.4, excitation 600 nm, emission 617 nm): increases with increasing concentration of peroxynitrite
- increase in fluorescence intensity with peroxynitrite versus other ROS and RNS ([2]; 5 μM probe, ex 600/em 617 nm, .OH, ONOO- 5 μM, 1O2, O2.-, NO, ROO., H2O2 50 μM): much higher increase in fluorescence intensity

Structure (SMILES): COC(=O)CN(CC(=O)OC)C(=O)c1ccc(C2=C3C=CC(=O)C=C3[Si](C)(C)c3cc(N(C)c4ccc(O)cc4)ccc32)c(C)c1 [Compound 24]
- fluorescence in the absence of stimulants [3]: very weak fluorescence
- fluorescence after treatment with stimulants [3]: strongly induced

Structure (SMILES): CC[N+]1=c2cc3c(cc2C(C)CC1(C)C)=C(c1ccc(C(=O)O)cc1C)c1ccc(N(C)c2ccc(O)cc2)cc1[Si]3(C)C (centres unmarked) [Compound 25]
- fluorescence intensity after treatment with peroxynitrite at various concentrations ([1]; 5 μM solution in 0.1 M phosphate buffer pH 7.4, excitation 650 nm, emission 665 nm): increases with increasing concentration of peroxynitrite
- increase in fluorescence intensity with peroxynitrite versus other ROS and RNS ([2]; 5 μM probe, ex 650/em 665 nm, .OH, ONOO- 5 μM, 1O2, O2.-, NO, ROO., H2O2 50 μM): much higher increase in fluorescence intensity

Structure (SMILES): CC[N+]1=c2cc3c(cc2C(C)CC1(C)C)=C(c1ccc(C(=O)N(CC(=O)OC)CC(=O)OC)cc1C)c1ccc(N(C)c2ccc(O)cc2)cc1[Si]3(C)C (centres unmarked) [Compound 27]
- fluorescence after treatment with stimulants ([5]; LPS and IFN-γ for 14 hr): strongly induced
- fluorescence in the absence of stimulants ([5]; control): very weak fluorescence

- emission maximum ([2]; 0.1 M phosphate buffer pH 7.4, exciting at 515 nm): 540 nm
Structure (SMILES): CN(c1ccc(O)cc1)c1ccc2c(-c3ccccc3C(=O)N3CCN(C(=O)CCCC[P+](c4ccccc4)(c4ccccc4)c4ccccc4)CC3)c3ccc(=O)cc-3oc2c1 [Compound 30]
- fluorescence intensity after treatment with peroxynitrite at various concentrations ([1]; 1 μM solution in 0.1 M phosphate buffer pH 7.4, excited at 515 nm): increases with increasing concentration of peroxynitrite
- increase in fluorescence intensity with peroxynitrite versus other ROS and RNS ([2]; 1 μM solution of compound 30, ex 515 nm, em 540 nm, ONOO- 1 μM, .OH 1 or 10 μM, others 10 or 100 μM): sensitively and selectively detects peroxynitrite
